From patent US6515197B1, “Transgenic mouse expressing a polynucleotide encoding a human ataxin-2 polypeptide” (Cedars-Sinai Medical Center, priority 2000, dated 2003) come the findings set out here.

This assay concerns proteasomal pathway. Briefly: lactacystin treatment of 293T cells transfected with SCA2 constructs, western blot. In kind it is cell-based. As to the method: To further confirm that the 42 kD fragment was generated preferably by ataxin-2 with an expanded polyQ tract, and to investigate whether mutant ataxin-2 was ubiquitinated, 293T cells were transfected with pEGFP-SCA2(Q22) or pEGFP-SCA2(Q58), followed by treatment with lactacystin for 24 hours to inhibit the proteasomal pathway. Briefly, to generate GFP fusion with SCA2, a full-length SCA2 cDNA including nucleotides 145 to 4,481 (Pulst et al., Nature Genet., 14:269-276 (1996)) was assembled in the pBluescript vector with 22 or 58 CAG repeats. To generate ataxin-2 expression plasmids, the full-length SCA2 cDNA containing either the 22 or 58 CAG repeat was shuttled into the pEGFPC2 (Clontech; Palo Alto Calif.) or pcDNA vectors (Invitrogen; Carlsbad Calif.). These constructs were named pEGFP-SCA22, pEGFP-SCA58, pcDNA-SCA22 or pcDNA-SCA58.
Transient expression of pEGFP-SCA2 constructs was analyzed in 293T cells. To investigate ubiquitination of ataxin-2, 293T cells growing at 60% confluency in 100-mm Petri dishes were transfected with either pEGFP-SCA2 or pcDNA-SCA2 constructs (10 μg) containing either 22 or 58 CAG repeats. Transfected cells were grown overnight and then treated with culture medium with or without lactacystin (10 μM) for 24 h. Cells were incubated with triple detergent buffer (0.5% sodium dodecyl sulfate (SDS), 1% Triton-X 100, 0.5% deoxycholate, 100 mM Tris-HCl, pH 8.0, 150 mM NaCl, and Sigma mammalian protease inhibitors cocktail (Sigma; St. Louis Mo.)) for 1 h on ice with occasional vortexing. Protein extracts were centrifuged at maximum speed in an Eppendorf microfuge at 4° C. for 30 min, and pellets were resuspended in triple detergent buffer. Both protein extract and pellet suspension were stored at −70° C. For western-blot analysis, 100 μg total protein extract per lane was mixed with SDS-polyacrylamide gel electrophoresis (PAGE) sample buffer and incubated for 2 h at 37° C. before loading on to a 4-15% SDS-PAGE gradient gel. Western blots were detected with SCA2A, 1C2 and ubiquitin antibodies.
Western blots were performed on transfected 293 cell protein extracts and insoluble pellets using the GFP or ubiquitin antibody. Untreated cells served as controls. The GFP antibody detected the full-length GFP-ataxin-2 with Q22 and Q58 at 200 kD and an additional band at 70 kD in 293T cells transfected with pEGFP-SCA2(Q58). Neither the 70 kD nor the 200 kD proteins were detected in untransfected 293T protein extracts.
To investigate whether the GFP fusion caused any interference with ubiquitin conjugation, 293T cells were transfected with pcDNA-SCA2(Q22) or pcDNA-SCA2(58) and treated with lactacystin.

With `CC(=O)N[C@@H](CSC(=O)[C@]1([C@@H](O)C(C)C)NC(=O)[C@H](C)[C@@H]1O)C(=O)O` [lactacystin], the “levels of GFP-tagged ataxin-2” value (293T cells transfected with pEGFP-SCA2(Q22) or (Q58), lactacystin 10 μM for 24 h, versus untreated cells, GFP antibody) is “increased levels”. In addition, the “levels of ubiquitin-conjugated protein complexes” value (293T cells transfected with pEGFP-SCA2(Q22) or (Q58), lactacystin 10 μM for 24 h, versus untreated cells, ubiquitin antibody) is listed as “increased levels”. The “total amount of ataxin-2(Q58) (p180)” value (293T cells transfected with pcDNA-SCA2(58), lactacystin-treated, 1C2 or ubiquitin antibodies) is “increased”. Besides, the “formation of large ataxin-2 aggregates” value (293T cells transfected with pcDNA-SCA2(Q22) or pcDNA-SCA2(58), lactacystin-treated, western blot) is reported as “no large ataxin-2 aggregates were found”.
